Results: BindingDB's records for doi:10.1021/jm000290u (Purdue University, 2001)

Biological target: Human immunodeficiency virus 2
Assay: In vitro inhibition of cytopathic effect was determined against HIV-2 ROD in MT-4 cells using MTT cytoprotection assay

Structure (SMILES)	EC50 [µM]
CC(C)CCCC(C)[C@H]1CCC2C3CCC4C[C@@H](CCC=C(c5cc(Cl)c(O)c(C(=O)N[C@@H](CCC(=O)O)C(=O)O)c5)c5cc(Cl)c(O)c(C(=O)N[C@@H](CCC(=O)O)C(=O)O)c5)CC[C@]4(C)C3CC[C@@]21C (stereo not given in full) [2-(3-Chloro-5-{1-[3-chloro-5-(1,3-dicarboxy-propylcarbamoyl)-4-hydroxy-phenyl]-4-[17-(1,5-dimethyl-hexyl)-10,13-dimethyl-hexadecahydro-cyclopenta[a]phenanthren-3-yl]-but-1-enyl}-2-hydroxy-benzoylamino)-pentanedioic acid]	69.6
CC(C)CCCC(C)[C@H]1CCC2C3CCC4C[C@@H](CCCC(c5cc(Cl)c(O)c(C(=O)N[C@@H](CCC(=O)O)C(=O)O)c5)c5cc(Cl)c(O)c(C(=O)N[C@@H](CCC(=O)O)C(=O)O)c5)CC[C@]4(C)C3CC[C@@]21C (stereo not given in full) [2-(3-Chloro-5-{1-[3-chloro-5-(1,3-dicarboxy-propylcarbamoyl)-4-hydroxy-phenyl]-4-[17-(1,5-dimethyl-hexyl)-10,13-dimethyl-hexadecahydro-cyclopenta[a]phenanthren-3-yl]-butyl}-2-hydroxy-benzoylamino)-pentanedioic acid]	73
CC(C)CCCC(C)[C@H]1CCC2C3CCC4C[C@@H](CCC=C(c5cc(Cl)c(O)c(C(=O)N[C@@H](Cc6ccccc6)C(=O)O)c5)c5cc(Cl)c(O)c(C(=O)N[C@@H](Cc6ccccc6)C(=O)O)c5)CC[C@]4(C)C3CC[C@@]21C (stereo partly drawn) [2-(5-{1-{3-[1-carboxy-2-phenyl-(1S)-ethylcarbamoyl]-5-chloro-4-hydroxyphenyl}-4-[1-(1,5-dimethylhexyl)-9a,11a-dimethylperhydrocyclopenta[a]phenanthren-7-yl]-1-butenyl}-3-chloro-2-hydroxyphenylcarboxamido)-3-phenyl-(2S)-propanoic acid]	> 62
CC(C)CCCC(C)[C@H]1CCC2C3CCC4C[C@@H](CCC=C(c5cc(Cl)c(OCc6ccc(-c7cccc(C(=O)O)c7)cc6)c(C(=O)O)c5)c5cc(Cl)c(OCc6ccc(-c7cccc(C(=O)O)c7)cc6)c(C(=O)O)c5)CC[C@]4(C)C3CC[C@@]21C (stereo partly drawn) [3'',3'''-Dichloro-5'',5'''-dicarboxy-4'',4'''-di[p-(3-carboxy-phenyl)benzyloxy]-4',4'-diphenyl-3beta-(3'-buten-1-yl)cholestane]	> 95
CC(C)CCCC(C)[C@H]1CCC2C3CCC4C[C@@H](CCC=C(c5cc(Cl)c(OCc6ccc(-c7ccc(C(=O)O)cc7)cc6)c(C(=O)O)c5)c5cc(Cl)c(OCc6ccc(-c7ccc(C(=O)O)cc7)cc6)c(C(=O)O)c5)CC[C@]4(C)C3CC[C@@]21C (stereo partly drawn) [3'',3'''-Dichloro-5'',5'''-dicarboxy-4'',4'''-di[p-(4-carboxy-phenyl)benzyloxy]-4',4'-diphenyl-3beta-(3'-buten-1-yl)cholestane]	> 100
CC(C)CCCC(C)[C@H]1CCC2C3CCC4C[C@@H](CCC=C(c5cc(Cl)c(OCc6ccc(CC(=O)O)cc6)c(C(=O)O)c5)c5cc(Cl)c(OCc6ccc(CC(=O)O)cc6)c(C(=O)O)c5)CC[C@]4(C)C3CC[C@@]21C (stereo partly drawn) [3'',3'''-Dichloro-5'',5'''-dicarboxy-4'',4'''-di[p-(carboxymethyl)benzyloxy]-4',4'-diphenyl-3beta-(3'-buten-1-yl)cholestane]	83.8
CC(C)CCCC(C)[C@H]1CCC2C3CCC4C[C@@H](CCCC(c5cc(Cl)c(OCc6ccc(C(=O)O)cc6)c(C(=O)O)c5)c5cc(Cl)c(OCc6ccc(C(=O)O)cc6)c(C(=O)O)c5)CC[C@]4(C)C3CC[C@@]21C (stereo partly drawn) [3'',3'''-Dichloro-5'',5'''-dicarboxy-4'',4'''-di[p-carboxybenzyloxy]-4',4'-diphenyl-3beta-(1-butyl)cholestane]	70.4
CC(C)CCCC(C)[C@H]1CCC2C3CCC4C[C@@H](CCC=C(c5cc(Cl)c(O)c(C(=O)NCCC(=O)O)c5)c5cc(Cl)c(O)c(C(=O)NCCC(=O)O)c5)CC[C@]4(C)C3CC[C@@]21C (stereo not given in full) [3-(5-{1-[3-(2-Carboxy-ethylcarbamoyl)-5-chloro-4-hydroxy-phenyl]-4-[17-(1,5-dimethyl-hexyl)-10,13-dimethyl-hexadecahydro-cyclopenta[a]phenanthren-3-yl]-but-1-enyl}-3-chloro-2-hydroxy-benzoylamino)-propionic acid]	120
CC(C)CCCC(C)[C@H]1CCC2C3CCC4C[C@@H](CCC=C(c5cc(Cl)c(O)c(C(=O)O)c5)c5cc(Cl)c(O)c(C(=O)O)c5)CC[C@]4(C)C3CC[C@@]21C (stereo partly drawn) [5-{1-(3-carboxy-5-chloro-4-hydroxyphenyl)-4-[1-(1,5-dimethylhexyl)-9a,11a-dimethyl-(9aS,11aR)-perhydrocyclopenta[a]phenanthren-7-yl]-1-butenyl}-3-chloro-2-hydroxybenzoic acid]	4
CC(C)CCCC(C)[C@H]1CCC2C3CCC4C[C@@H](CCC=C(c5cc(Cl)c(O)c(C(=O)N[C@@H](CC(=O)O)C(=O)O)c5)c5cc(Cl)c(O)c(C(=O)N[C@@H](CC(=O)O)C(=O)O)c5)CC[C@]4(C)C3CC[C@@]21C (stereo partly drawn) [(S)-2-(3-Chloro-5-{1-[3-chloro-5-((S)-1,2-dicarboxy-ethylcarbamoyl)-4-hydroxy-phenyl]-4-[(3S,10S,13R,17R)-17-(1,5-dimethyl-hexyl)-10,13-dimethyl-hexadecahydro-cyclopenta[a]phenanthren-3-yl]-but-1-enyl}-2-hydroxy-benzoylamino)-succinic acid]	122
CC(C)CCCC(C)[C@H]1CCC2C3CCC4C[C@@H](CCC=C(c5cc(Cl)c(OCc6ccc(C(=O)O)cc6)c(C(=O)O)c5)c5cc(Cl)c(OCc6ccc(C(=O)O)cc6)c(C(=O)O)c5)CC[C@]4(C)C3CC[C@@]21C (stereo not given in full) [Cosalane analogue]	22
CC(C)CCCC(C)[C@H]1CCC2C3CCC4C[C@@H](CCC=C(c5cc(Cl)c(OCc6cccc(C(=O)O)c6)c(C(=O)O)c5)c5cc(Cl)c(OCc6cccc(C(=O)O)c6)c(C(=O)O)c5)CC[C@]4(C)C3CC[C@@]21C (stereo not given in full) [Cosalane analogue]	> 29
CC(C)CCCC(C)[C@H]1CCC2C3CCC4C[C@@H](CCC=C(c5cc(Cl)c(OCc6ccccc6C(=O)O)c(C(=O)O)c5)c5cc(Cl)c(OCc6ccccc6C(=O)O)c(C(=O)O)c5)CC[C@]4(C)C3CC[C@@]21C (stereo not given in full) [Cosalane analogue]	> 37
COc1c(Cl)cc(Cc2cc(C(=CCC[C@H]3CC[C@@]4(C)C(CCC5C4CC[C@@]4(C)C5CC[C@@H]4C(C)CCCC(C)C)C3)c3cc(Cc4cc(Cl)c(OC)c(C(=O)O)c4)c(OC)c(C(=O)O)c3)cc(C(=O)O)c2OC)cc1C(=O)O (stereo not given in full) [Cosalane analogue]	19.9
COc1ccc(C(=O)Nc2cc(C(=CCC[C@H]3CC[C@@]4(C)C(CCC5C4CC[C@@]4(C)C5CC[C@@H]4C(C)CCCC(C)C)C3)c3cc(NC(=O)c4ccc(OC)c(C(=O)O)c4)c(OC)c(C(=O)O)c3)cc(C(=O)O)c2OC)cc1C(=O)O (stereo not given in full) [Cosalane analogue]	> 66
